# From US9695155B2, “Herbicidal substituted pyrimidinyloxy benzene compounds” (E. I. DU PONT DE NEMOURS AND COMPANY, priority 2013, dated 2017)
# Assays:
# waterhemp = test: Test C postemergence; type: in vivo, Amaranthus rudis; settings: for Plant response rating, Waterhemp / Waterhemp plant response rating: scale 0 to 100 (0 no effect, 100 complete control)
# Text: (§1) Seeds of plant species selected from blackgrass (Alopecurus myosuroides), Italian ryegrass (Lolium multiflorum), wheat, winter (winter wheat, Triticum aestivum), galium (catchweed bedstraw, Galium aparine), corn (Zea mays), large (Lg) crabgrass (Digitaria sanguinalis), giant foxtail (Setaria faberii), johnsongrass (Sorghum halepense), lambsquarters (Chenopodium album), morningglory (Ipomoea coccinea), yellow nutsedge (Cyperus esculentus), pigweed (Amaranthus retroflexus), ragweed (common ragweed, Ambrosia elatior), soybean (Glycine max), barnyardgrass (Echinochloa crus-galli), oilseed rape (Brassica napus), waterhemp (common waterhemp, Amaranthus rudis), kochia (Kochia scoparia), wild oat (Avena fatua), surinam grass (Brachiaria decumbens), foxtail, green (green foxtail, Setaria viridis), goosegrass (Eleusine indica), bromegrass, downy (downy bromegrass, Bromus tectorum), nightshade (eastern black nightshade, Solanum ptycanthum), cocklebur (common cocklebur, Xanthium strumarium), cupgrass, woolly (woolly cupgrass, Eriochloa villosa), bermudagrass (Cynodon dactylon), sunflower, (common oilseed sunflower, Helianthus annuus), Russian thistle (Salsola kali), and velvetleaf (Abutilon theophrasti) were planted into a blend of loam soil and sand and treated preemergence with test chemicals formulated in a non-phytotoxic solvent mixture which included a surfactant.
# (§2) At the same time, plants selected from these crop and weed species and also barley, winter (winter barley, Hordeum vulgare), windgrass (Apera spica-venti), chickweed (common chickweed, Stellaria media), deadnettle (henbit deadnettle, Lamium amplexicaule), and canarygrass (littleseed canarygrass, Phalaris minor) were planted in pots containing Redi-Earth® planting medium (Scotts Company, 14111 Scottslawn Road, Marysville, Ohio 43041) comprising spaghnum peat moss, vermiculite, wetting agent and starter nutrients and treated with postemergence applications of test chemicals formulated in the same manner. Plants ranged in height from 2 to 18 cm (1- to 4-leaf stage) for postemergence treatments. Treated plants and controls were maintained in a greenhouse for 13 to 15 days, after which time all species were compared to controls and visually evaluated. Plant response ratings, summarized in Table C, are based on a scale of 0 to 100 where 0 is no effect and 100 is complete control. A dash (-) response means no test result.
# corn [1] = test: Test A preemergence; type: in vivo, Zea mays
# Method in brief: (§3)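 Visual 0–100 rating (100 = complete control) taken about 10 d post-treatment relative to untreated checks. Preemergence: directed soil spray on sown loam/sand pots. Postemergence: seedlings 2–10 cm, 1–2 leaf. Non-phytotoxic solvent formulation with surfactant.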
# wild oat = test: Test C postemergence; type: in vivo, Avena fatua; settings: for Plant response rating, Oat, Wild / Oat, Wild plant response rating: scale 0 to 100 (0 no effect, 100 complete control)
# Text: as §1, §2
# wheat, winter = test: Test C postemergence; type: in vivo, Triticum aestivum; settings: for Plant response rating, Wheat / Wheat plant response rating: scale 0 to 100 (0 no effect, 100 complete control)
# Method in brief: (§4)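 Injury was assessed visually against controls 13 to 15 days after application, with 0 meaning no effect and 100 full control; missing entries are shown as a dash. Preemergence sprays hit seeded loam–sand soil, postemergence sprays hit 1- to 4-leaf plants.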
# galium = test: Test C postemergence; type: in vivo, Galium aparine; settings: for Plant response rating, Galium / Galium plant response rating: scale 0 to 100 (0 no effect, 100 complete control)
# Method in brief: as §4
# ragweed = test: Test C postemergence; type: in vivo, Ambrosia elatior; settings: for Plant response rating, Ragweed / Ragweed plant response rating: scale 0 to 100 (0 no effect, 100 complete control)
# Method in brief: as §4
# barnyardgrass [2] = test: Test A postemergence; type: in vivo, Echinochloa crus-galli
# Method in brief: as §3
# corn [3] = test: Test A postemergence; type: in vivo, Zea mays
# Method in brief: as §3
# barnyardgrass [4] = test: Test C postemergence; type: in vivo, Echinochloa crus-galli; settings: for Plant response rating, Barnyardgrass / Barnyardgrass plant response rating: scale 0 to 100 (0 no effect, 100 complete control)
# Text: as §1, §2
# yellow nutsedge = test: Test C postemergence; type: in vivo, Cyperus esculentus; settings: for Plant response rating (0 to 100), Nutsedge, Yellow / Nutsedge, Yellow plant response rating: postemergence; for Plant response rating, Nutsedge, Yellow: Postemergence; for Plant response rating, Nutsedge, Yellow / Nutsedge, Yellow plant response rating: scale 0 to 100 (0 no effect, 100 complete control); for Nutsedge, Yellow plant response rating: visual rating
# Method in brief: as §4
# [5] = Postemergence, 31 g ai/ha, 13 to 15 days
# [6] = 125 g ai/ha, 0 to 100 scale where 0 is no effect and 100 is complete control
# [7] = 500 g ai/ha, 0 to 100 scale, 0 no effect, 100 complete control
# [8] = 8 g ai/ha, postemergence, 0 is no effect, 100 is complete control
# [9] = 16 g ai/ha, postemergence, 0 is no effect, 100 is complete control
# [10] = 31 g ai/ha, postemergence, visual rating, 13 to 15 days
# [11] = Postemergence, 62 g ai/ha, 13 to 15 days
# [12] = 1000 g ai/ha, 0 to 100 scale, 0 no effect, 100 complete control
# [13] = 16 g ai/ha, 0 is no effect, 100 is complete control
# [14] = 125 g ai/ha, postemergence, visual rating
# [15] = 500 g ai/ha, 0 to 100 scale where 0 is no effect and 100 is complete control
structure (smiles),measurement,setting,value
Fc1cnc(Oc2ccccc2-n2cc(C(F)(F)F)cn2)nc1 [Compound 47],"Plant response rating (0 to 100), Waterhemp","waterhemp; 125 g ai/ha, postemergence",100
same,"Plant response rating (0 to 100), Waterhemp","waterhemp; 250 g ai/ha, postemergence",100
same,"Plant response rating, Waterhemp",waterhemp; [5],100
same,"Plant response rating, Waterhemp","waterhemp; Postemergence, 62 g ai/ha",100
same,"Plant response rating, Corn",corn [1]; [6],0
same,Corn plant response rating,"corn [1]; 500 g ai/ha, 0 to 100 scale, 0 no effect, 100 complete control, approx. 10 days",90
same,"Plant response rating (0 to 100), Oat, Wild","wild oat; 125 g ai/ha, postemergence",0
same,"Plant response rating (0 to 100), Oat, Wild","wild oat; 250 g ai/ha, postemergence",5
same,"Plant response rating, Oat, Wild",wild oat; [5],0
same,"Plant response rating, Oat, Wild","wild oat; Postemergence, 62 g ai/ha",0
same,"Plant response rating (0 to 100), Wheat","wheat, winter; 125 g ai/ha, postemergence",0
same,"Plant response rating (0 to 100), Wheat","wheat, winter; 250 g ai/ha, postemergence",0
same,"Plant response rating, Wheat","wheat, winter; [5]",0
same,"Plant response rating, Wheat","wheat, winter; Postemergence, 62 g ai/ha",0
same,"Plant response rating (0 to 100), Galium","galium; 125 g ai/ha, postemergence",55
same,"Plant response rating (0 to 100), Galium","galium; 250 g ai/ha, postemergence",65
same,"Plant response rating, Galium",galium; [5],35
same,"Plant response rating, Galium","galium; Postemergence, 62 g ai/ha",50
same,"Plant response rating (0 to 100), Ragweed","ragweed; 125 g ai/ha, postemergence",50
same,"Plant response rating (0 to 100), Ragweed","ragweed; 250 g ai/ha, postemergence",85
same,"Plant response rating, Ragweed",ragweed; [5],20
same,"Plant response rating, Ragweed","ragweed; Postemergence, 62 g ai/ha",50
same,"Plant response rating, Barnyardgrass",barnyardgrass [2]; [6],30
same,"Plant response rating, Barnyardgrass",barnyardgrass [2]; [7],100
same,"Plant response rating, Corn",corn [3]; [6],40
same,"Plant response rating, Corn",corn [3]; [7],90
same,"Plant response rating (0 to 100), Barnyardgrass","barnyardgrass [4]; 125 g ai/ha, postemergence",0
same,"Plant response rating (0 to 100), Barnyardgrass","barnyardgrass [4]; 250 g ai/ha, postemergence",5
same,"Plant response rating, Barnyardgrass",barnyardgrass [4]; [5],0
same,"Plant response rating, Barnyardgrass","barnyardgrass [4]; Postemergence, 62 g ai/ha",0
same,"Plant response rating (0 to 100), Nutsedge, Yellow",yellow nutsedge; 125 g ai/ha,0
same,"Plant response rating (0 to 100), Nutsedge, Yellow",yellow nutsedge; 250 g ai/ha,10
same,"Plant response rating, Nutsedge, Yellow","yellow nutsedge; 31 g ai/ha, 13 to 15 days",0
same,"Plant response rating, Nutsedge, Yellow",yellow nutsedge; 62 g ai/ha,0
Clc1cnc(Oc2ccccc2-n2cc(I)nn2)nc1 [Compound 222],"Plant response rating (0 to 100), Waterhemp",waterhemp; [8],60
same,"Plant response rating (0 to 100), Waterhemp",waterhemp; [9],70
same,Waterhemp plant response rating,waterhemp; [10],90
same,"Plant response rating, Waterhemp",waterhemp; [11],90
same,Corn plant response rating,"corn [1]; 1000 g ai/ha, 0 to 100 scale, 0 no effect, 100 complete control, approx. 10 days",60
same,"Plant response rating (0 to 100), Oat, Wild",wild oat; [8],5
same,"Plant response rating (0 to 100), Oat, Wild",wild oat; [9],10
same,"Oat, Wild plant response rating",wild oat; [10],10
same,"Plant response rating, Oat, Wild",wild oat; [11],30
same,"Plant response rating (0 to 100), Wheat","wheat, winter; [8]",0
same,"Plant response rating (0 to 100), Wheat","wheat, winter; [9]",0
same,Wheat plant response rating,"wheat, winter; [10]",0
same,"Plant response rating, Wheat","wheat, winter; [11]",5
same,"Plant response rating (0 to 100), Galium",galium; [8],65
same,"Plant response rating (0 to 100), Galium",galium; [9],70
same,Galium plant response rating,galium; [10],85
same,"Plant response rating, Galium",galium; [11],85
same,"Plant response rating (0 to 100), Ragweed",ragweed; [8],20
same,"Plant response rating (0 to 100), Ragweed",ragweed; [9],40
same,Ragweed plant response rating,ragweed; [10],45
same,"Plant response rating, Ragweed",ragweed; [11],60
same,"Plant response rating, Barnyardgrass",barnyardgrass [2]; [12],100
same,"Plant response rating, Corn",corn [3]; [12],50
same,"Plant response rating (0 to 100), Barnyardgrass",barnyardgrass [4]; [8],5
same,"Plant response rating (0 to 100), Barnyardgrass",barnyardgrass [4]; [9],5
same,Barnyardgrass plant response rating,barnyardgrass [4]; [10],10
same,"Plant response rating, Barnyardgrass","barnyardgrass [4]; Postemergence, 62 g ai/ha",15
same,"Plant response rating (0 to 100), Nutsedge, Yellow","yellow nutsedge; 8 g ai/ha, 0 is no effect, 100 is complete control",0
same,"Plant response rating (0 to 100), Nutsedge, Yellow",yellow nutsedge; [13],5
same,"Nutsedge, Yellow plant response rating","yellow nutsedge; 31 g ai/ha, 13 to 15 days",5
same,"Plant response rating, Nutsedge, Yellow","yellow nutsedge; 62 g ai/ha, 13 to 15 days",5
Clc1cnc(Oc2cccc(Cl)c2-n2cc(I)cn2)nc1 [Compound 181],"Plant response rating (0 to 100), Waterhemp",waterhemp; [9],80
same,Waterhemp plant response rating,waterhemp; [10],85
same,"Plant response rating, Waterhemp",waterhemp; [14],98
same,"Plant response rating, Waterhemp","waterhemp; Postemergence, 62 g ai/ha",85
same,Corn plant response rating (0 to 100 scale),corn [1]; 125 g ai/ha,0
same,Corn plant response rating,corn [1]; [15],30
same,"Plant response rating (0 to 100), Oat, Wild",wild oat; [9],0
same,"Oat, Wild plant response rating",wild oat; [10],5
same,"Plant response rating, Oat, Wild",wild oat; [14],5
same,"Plant response rating, Oat, Wild","wild oat; Postemergence, 62 g ai/ha",5
same,"Plant response rating (0 to 100), Wheat","wheat, winter; [9]",0
same,Wheat plant response rating,"wheat, winter; [10]",0
same,"Plant response rating, Wheat","wheat, winter; [14]",5
same,"Plant response rating, Wheat","wheat, winter; Postemergence, 62 g ai/ha",0
same,"Plant response rating (0 to 100), Galium",galium; [9],60
same,Galium plant response rating,galium; [10],65
same,"Plant response rating, Galium",galium; [14],80
same,"Plant response rating, Galium","galium; Postemergence, 62 g ai/ha",70
same,"Plant response rating (0 to 100), Ragweed",ragweed; [9],5
same,Ragweed plant response rating,ragweed; [10],35
same,"Plant response rating, Ragweed",ragweed; [14],45
same,"Plant response rating, Ragweed","ragweed; Postemergence, 62 g ai/ha",30
same,Barnyardgrass plant response rating,barnyardgrass [2]; [6],60
same,"Plant response rating, Barnyardgrass",barnyardgrass [2]; [15],90
same,Corn plant response rating,corn [3]; [6],40
same,"Plant response rating, Corn",corn [3]; [15],40
same,"Plant response rating (0 to 100), Barnyardgrass",barnyardgrass [4]; [9],5
same,Barnyardgrass plant response rating,barnyardgrass [4]; [10],5
same,"Plant response rating, Barnyardgrass",barnyardgrass [4]; [14],10
same,"Plant response rating, Barnyardgrass","barnyardgrass [4]; Postemergence, 62 g ai/ha",10
same,"Plant response rating (0 to 100), Nutsedge, Yellow",yellow nutsedge; [13],0
same,"Nutsedge, Yellow plant response rating","yellow nutsedge; 31 g ai/ha, 13 to 15 days",0
same,"Plant response rating, Nutsedge, Yellow",yellow nutsedge; 62 g ai/ha,5
